Counter-ions that a name gives are not always drawn.
With `COCC(=O)Nc1nc(OC)c(C#N)c(-c2c(F)cccc2F)c1C#N` [Example 62, N-[3,5-dicyano-4-(2,6-difluorophenyl)-6-methoxypyridin-2-yl]-2-methoxyacetamide] as the molecule, how does the melting point read?
The melting point was 181 to 182 °C.

With `CN(C)c1cccc(-c2c(C#N)c(N)nc(SCc3cccnc3)c2C#N)c1.Cl.Cl` as the molecule, how does the melting point read?
Its melting point is 243 to 245 °C.

Which melting point does the source give for `COc1nc(N)c(C#N)c(-c2cnc(N)s2)c1C#N` (as salt: chloride) [Example 67, 2-amino-4-(2-aminothiazol-5-yl)-6-methoxypyridine-3,5-dicarbonitrile mono hydro chloride] here?
Its melting point is 240 to 242 °C (dec.).

For `COc1nc(NC(=O)C2CC2)c(C#N)c(-c2ccccc2F)c1C#N` [Example 70, N-[3,5-dicyano-4-(2-fluorophenyl)-6-methoxypyridin-2-yl] cyclopropanecarboxamide], which melting point is on record?
Its melting point is 203 to 204 °C.

For `COc1nc(N(C(=O)Oc2ccccc2)C(=O)Oc2ccccc2)c(C#N)c(-c2ccccc2F)c1C#N`, which melting point is on record?
The melting point was 156 to 158 °C.

For `COc1nc(N)c(C#N)c(-c2c[nH]c3ccccc23)c1C#N` [Example 170], which melting point is on record?
The melting point was > 300 °C.

With `CSc1nc(NS(C)(=O)=O)c(C#N)c(-c2ccsc2)c1C#N` [Example 45, N-(3,5-dicyano-6-methylsulfanyl-4-thiophen-3-ylpyridin-2-yl)methanesulfonamide] as the molecule, how does the melting point read?
Its melting point is > 250 °C.

With `COc1nc(N)c(C#N)c(C2CCCNC2)c1C#N` (centres unmarked) as the molecule, how does the melting point read?
The melting point was 176 to 178 °C.

For `N#Cc1c(N)nc(Br)c(C#N)c1-c1ccccc1` [Example 178], which melting point is on record?
Its melting point is > 300 °C.

Which melting point does the source give for `COc1nc(N)c(C#N)c(-c2ccc(NS(C)(=O)=O)cc2)c1C#N` [Example 38, N-[4-(2-amino-3,5-dicyano-6-methoxypyridin-4-yl)phenyl]methanesulfonamide] here?
The melting point was 265 to 266 °C.

With `N#Cc1cc(C#N)c(Oc2ccccc2)nc1N` [Example 426] as the molecule, how does the melting point read?
The melting point was 235 to 237 °C.

With `CC(C)Oc1nc(N)c(C#N)c(-c2ccccc2F)c1C#N` [Example 18, 2-amino-4-(2-fluorophenyl)-6-isopropoxypyridine-3,5-dicarbonitrile] as the molecule, how does the melting point read?
Its melting point is 161 to 162 °C.

For `COc1nc(NC(=O)N(C)C)c(C#N)c(-c2ccccc2F)c1C#N` [Example 71, 3-[3,5-dicyano-4-(2-fluorophenyl)-6-methoxypyridin-2-yl]-1,1-dimethylurea], which melting point is on record?
The melting point was 82 to 86 °C.

Which melting point does the source give for `N#Cc1c(N)nc(OCc2ccccc2)c(C#N)c1-c1cccs1` [Example 378] here?
Its melting point is 186 to 187 °C.

For `CNc1nc(OC)c(C#N)c(-c2ccccc2)c1C#N` [Example 360], which melting point is on record?
Its melting point is 216 to 218 °C.

For `COc1nc(N)c(C#N)c(-c2ccc3cccnc3c2)c1C#N` (as salt: HCl) [Example 172, 2-amino-6-methoxy-4-quinolin-7-ylpyridine-3,5-dicarbonitrile], which melting point is on record?
Its melting point is 245 to 254 °C (dec.).

With `N#Cc1c(N)nc(Oc2ccccc2)c(C#N)c1-c1ccccc1` [Example 194] as the molecule, how does the melting point read?
Its melting point is 202 °C.

With `N#Cc1c(N)nc(Oc2ccccc2CN)c(C#N)c1-c1ccccc1` (as salt: HCl) [Example 201, 2-amino-6-(2-aminomethylphenoxy)-4-phenylpyridine-3,5-dicarbonitrile] as the molecule, how does the melting point read?
The melting point was > 300 °C.

Which melting point does the source give for `N#Cc1c(N)nc(OCc2cccnc2)c(C#N)c1-c1ccccc1` (as salt: HCl) (hydrate or solvate) [Example 208, 2-amino-4-phenyl-6-(pyridin-3-ylmethoxy)pyridine-3,5-dicarbonitrile] here?
Its melting point is 174 to 175 °C.

For `N#Cc1c(N)nc(Cl)c(C#N)c1-c1cccs1` [Example 372], which melting point is on record?
Its melting point is 301 °C.

With `COc1nc(N)c(C#N)c(-c2ccc[nH]2)c1C#N` [Example 169] as the molecule, how does the melting point read?
Its melting point is 198 to 199 °C.

Which melting point does the source give for `COc1nc(N)c(C#N)c(C2CCOC2)c1C#N` (centres unmarked) [Example 163] here?
The melting point was 205 to 206 °C.

Which melting point does the source give for `N#Cc1c(N)nc(O)c(C#N)c1-c1ccc(N)cc1` [Example 21, 2-amino-(4-aminophenyl)-6-hydroxypyridine-3,5-dicarbonitrile] here?
Its melting point is > 300 °C.

With `COc1nc(NC(=O)COCc2ccccc2)c(C#N)c(-c2ccccc2F)c1C#N` [Example 399, 2-benzyloxy-N-[3,5-dicyano-4-(2-fluorophenyl)-6-methoxypyridin-2-yl]acetamide] as the molecule, how does the melting point read?
The melting point was 164 to 166 °C.

With `COc1nc(N)c(C#N)c(-c2cc[nH]c2)c1C#N` [Example 66, 2-amino-6-methoxy-4-(1H-pyrrol-3-yl)pyridine-3,5-dicarbonitrile] as the molecule, how does the melting point read?
Its melting point is 235 to 237 °C.

With `CSc1nc(N)c(C#N)c(-c2ccsc2)c1C#N` [Example 7, 2-amino-6-methylsulfanyl-4-(3-thienyl)pyridine-3,5-dicarbonitrile] as the molecule, how does the melting point read?
The melting point was 241 to 243 °C.

With `CCc1c(C#N)c(N)nc(OC)c1C#N` [Example 149] as the molecule, how does the melting point read?
Its melting point is 160 to 161 °C.

With `COc1nc(NC(=O)C(F)(F)F)c(C#N)c(-c2ccccc2F)c1C#N` [Example 69, N-[3,5-dicyano-4-(2-fluorophenyl)-6-methoxypyridin-2-yl]-2,2,2-trifluoroacetamide] as the molecule, how does the melting point read?
Its melting point is 142 to 145 °C.

For `Cl.Cl.N#Cc1c(NCCN)nc(NCCN)c(C#N)c1-c1ccccc1`, which melting point is on record?
The melting point was > 280 °C.

With `CCOc1nc(N)c(C#N)c(-c2ccccc2)c1C#N` [Example 179] as the molecule, how does the melting point read?
Its melting point is 233 to 234 °C.

Which melting point does the source give for `Cl.Cl.N#Cc1c(N)nc(Sc2cccnc2)c(C#N)c1-c1cccc(N)c1` here?
Its melting point is 285 to 288 °C (dec.).

With `N#Cc1c(N)nc(Br)c(C#N)c1-c1cccs1` [Example 373] as the molecule, how does the melting point read?
The melting point was 312 °C.

For `COc1nc(NC(=O)c2cccs2)c(C#N)c(-c2ccccc2F)c1C#N` [Example 414, N-[3,5-dicyano-4-(2-fluorophenyl)-6-methoxypyridin-2-yl]thiophene-2-carboxamide], which melting point is on record?
The melting point was 208 to 209 °C.

Which melting point does the source give for `COc1nc(NC(=O)Cc2ccccc2)c(C#N)c(-c2ccccc2F)c1C#N` [Example 416, N-[3,5-dicyano-4-(2-fluorophenyl)-6-methoxypyridin-2-yl]-2-phenylacetamide] here?
The melting point was 206 to 208 °C.

For `COc1nc(NC(=O)c2ccccn2)c(C#N)c(-c2ccccc2F)c1C#N` [Example 412, N-[3,5-dicyano-4-(2-fluorophenyl)-6-methoxypyridin-2-yl]pyridine-2-carboxamide], which melting point is on record?
Its melting point is 219 to 220 °C.

Which melting point does the source give for `N#Cc1c(N)nc(N)c(C#N)c1-c1ccccc1` [Example 41, 2,6-diamino-4-phenylpyridine-3,5-dicarbonitrile] here?
Its melting point is > 300 °C.

Which melting point does the source give for `COc1nc(N)c(C#N)c(C2CCNCC2)c1C#N` (as salt: hydrochloride) (hydrate or solvate) here?
The melting point was 240 °C (dec.).

For `COc1ncc(C#N)c(-c2ccccc2)c1C#N` [Example 26, 2-methoxy-4-phenylylpyridine-3,5-dicarbonitrile], which melting point is on record?
The melting point was 148 to 149 °C.

Which melting point does the source give for `CSc1nc(Br)c(C#N)c(-c2cccs2)c1C#N` [Example 24, 2-bromo-6-methylsulfanyl-4-thiophen-2-ylpyridine-3,5-dicarbonitrile] here?
The melting point was 169 to 171 °C.

For `COc1nc(NCCO)c(C#N)c(-c2ccccc2)c1C#N` [Example 362, 2-[(2-hydroxyethyl)amino]-6-methoxy-4-phenylpyridine-3,5-dicarbonitrile], which melting point is on record?
Its melting point is 153 to 155 °C.

With `CCCCCC(=O)Nc1nc(OC)c(C#N)c(-c2ccccc2F)c1C#N` [Example 407, N-[3,5-dicyano-4-(2-fluorophenyl)-6-methoxypyridin-2-yl]hexanamide] as the molecule, how does the melting point read?
The melting point was 139 to 141 °C.

Which melting point does the source give for `COCC(=O)Nc1nc(OCC(F)F)c(C#N)c(-c2ccccc2F)c1C#N` (hydrate or solvate) [Example 61, N-[3,5-dicyano-6-(2,2-difluoroethoxy)-4-(2-fluorophenyl)pyridin-2-yl]-2-metho xyacetamide] here?
Its melting point is 108 to 109 °C.

With `CSc1nc(O)c(C#N)c(-c2cccs2)c1C#N` [Example 23, 2-hydroxy-6-methylsulfanyl-4-thiophen-2-ylpyridine-3,5-dicarbonitrile] as the molecule, how does the melting point read?
The melting point was 245 °C (dec.).

Which melting point does the source give for `COc1nc(N)c(C#N)c(-c2ccnc(N)n2)c1C#N` (as salt: HCl) (hydrate or solvate) [Example 174] here?
The melting point was 80 °C (dec.).

Which melting point does the source give for `CSc1nc(N)c(C#N)c(C)c1C#N` [Example 75] here?
The melting point was 246 to 247 °C.

Which melting point does the source give for `N#Cc1c(N)nc(SCc2cccnc2)c(C#N)c1Cc1ccccc1` [Example 438, 2-amino-4-benzyl-6-[(pyridin-3-ylmethyl)sulfanyl]pyridine-3,5-dicarbonitrile] here?
Its melting point is 259 to 260 °C.

For `COc1nc(NC(=O)c2ccco2)c(C#N)c(-c2ccccc2F)c1C#N` [Example 415, N-[3,5-dicyano-4-(2-fluorophenyl)-6-methoxypyridin-2-yl]furan-2-carboxamide], which melting point is on record?
Its melting point is 222 to 223 °C.

For `COc1nc(N)c(C#N)c(-c2ccc(CN)cc2)c1C#N.Cl`, which melting point is on record?
Its melting point is > 300 °C.

For `COCCC(=O)Nc1nc(OC)c(C#N)c(-c2ccccc2F)c1C#N` [Example 404, N-[3,5-dicyano-4-(2-fluorophenyl)-6-methoxypyridin-2-yl]-3-methoxypropionamide], which melting point is on record?
The melting point was 115 to 116 °C.

For `N#Cc1c(N)nc(Oc2cccc(C(=O)O)c2)c(C#N)c1-c1ccccc1` [Example 31, 3-[(6-amino-3,5-dicyano-4-phenylpyridin-2-yl)oxy]benzoic acid], which melting point is on record?
Its melting point is 284 to 286 °C.

With `COc1nc(N)c(C#N)c(-c2cccc(C#N)c2)c1C#N` [Example 49, 2-amino-4-(3-cyanophenyl)-6-methoxypyridine-3,5-dicarbonitrile] as the molecule, how does the melting point read?
Its melting point is 298 to 299 °C.

With `COc1nc(N(C)C)c(C#N)c(-c2ccccc2)c1C#N` [Example 361] as the molecule, how does the melting point read?
Its melting point is 179 to 180 °C.

With `N#Cc1c(N)nc(N2CCNCC2)c(C#N)c1-c1ccccc1` (as salt: HCl) [Example 210] as the molecule, how does the melting point read?
Its melting point is 260 to 263 °C (dec.).

Which melting point does the source give for `COc1nc(N(C(C)=O)C(C)=O)c(C#N)c(-c2ccccc2F)c1C#N` [Example 59, 2-diacetylamino-4-(2-fluorophenyl)-6-methoxypyridine-3,5-dicarbonitrile] here?
The melting point was 137 to 138 °C.

With `CS(=O)(=O)c1nc(N)c(C#N)c(-c2cccs2)c1C#N` [Example 44, 2-amino-6-methanesulfonyl-4-thiophen-2-ylpyridine-3,5-dicarbonitrile] as the molecule, how does the melting point read?
Its melting point is 233 to 235 °C.

For `COc1nc(NC(=O)C(C)C)c(C#N)c(-c2ccccc2F)c1C#N` [Example 405, N-[3,5-dicyano-4-(2-fluorophenyl)-6-methoxypyridin-2-yl]isobutyramide], which melting point is on record?
Its melting point is 193 to 194 °C.
